Experimental data: the supplement of paper PMC10331698
± gives the standard deviation of the averaged measurements.

Key:
Assay in all cases: level (log10 ratio to DMSO vehicle control); higher = higher biomarker level / cell amount than vehicle control
Conditions in all cases: in DMSO
[1] = compound: FC(F)(F)C(F)(F)C(F)(F)C(F)(F)C(F)(F)CCI [1-Iodo-1H,1H,2H,2H-perfluoroheptane]
Protocol: (§1)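 BioMAP Diversity Plus panel of 12 human primary cell co-culture systems (3C, 4H, LPS, SAg, BT, BF4T, BE3C, CASM3C, HDF3CGF, KF3CT, MyoF, Mphg). Compounds were added 1 h before stimulation and left for 24 h (MyoF 48 h; BT 72 h for soluble read-outs or 6 d for IgG). Biomarkers were read by ELISA, cytotoxicity by SRB, PBMC viability and proliferation by Alamar Blue. Each well value was divided by the mean of 8 DMSO control wells on the same plate and log10 transformed; duplicate blinded samples were tested at 4 concentrations.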

Perfluoro-1-iodohexane = compound: FC(F)(F)C(F)(F)C(F)(F)C(F)(F)C(F)(F)C(F)(F)I [Perfluoro-1-iodohexane]
Protocol: as §1

[2] = compound: C=C(C)C(=O)OCCC(F)(F)C(F)(F)C(F)(F)C(F)(F)C(F)(C(F)(F)F)C(F)(F)F [(Perfluoro-5-methylhexyl)ethyl 2-methylprop-2-enoate]
Protocol: as §1

Perfluorobutanoic acid = compound: O=C(O)C(F)(F)C(F)(F)C(F)(F)F [Perfluorobutanoic acid]
Protocol: as §1

[3] = compound: O=C(O)C(F)(F)C(F)(F)C(F)(F)C(F)(F)C(F)(F)C(F)(F)C(F)(F)C(F)F [9-H-Perfluorononanoic acid]
Protocol: as §1

[4] = compound: O=C(O)C(F)(F)C(F)(F)C(F)(F)OC(F)(C(F)(F)F)C(F)(F)F [Perfluoro-4-isopropoxybutanoic acid]
Protocol: as §1

Pentafluoropropionamide = compound: NC(=O)C(F)(F)C(F)(F)F [Pentafluoropropionamide]
Protocol: as §1

Row | Test System | level (log10) ([1]; 6700 nM) | level (log10) ([1]; 20000 nM) | level (log10) ([1]; 60000 nM) | level (log10) (Perfluoro-1-iodohexane; 6700 nM) | level (log10) (Perfluoro-1-iodohexane; 20000 nM) | level (log10) (Perfluoro-1-iodohexane; 60000 nM) | level (log10) ([2]; 6700 nM) | level (log10) ([2]; 20000 nM) | level (log10) (Perfluorobutanoic acid; 6700 nM) | level (log10) (Perfluorobutanoic acid; 20000 nM) | level (log10) (Perfluorobutanoic acid; 60000 nM) | level (log10) ([3]; 6700 nM) | level (log10) ([3]; 20000 nM) | level (log10) ([3]; 60000 nM) | level (log10) ([4]; 6700 nM) | level (log10) ([4]; 20000 nM) | level (log10) ([4]; 60000 nM) | level (log10) (Pentafluoropropionamide; 6700 nM) | level (log10) (Pentafluoropropionamide; 20000 nM) | level (log10) (Pentafluoropropionamide; 60000 nM)
1 | 3C:CD87/uPAR | -0.0105 ± 0.0092 | -0.0065 ± 0.0092 | 0.0045 ± 0.018 | -0.0125 ± 0.032 | 0.004 ± 0.0071 | 0.0285 ± 0.0035 | -0.007 ± 0.0028 | -0.019 ± 0.028 | 0.0005 ± 0.005 | 0.0105 ± 0.015 | -0.0065 ± 0.011 | -0.013 ± 0.0042 | -0.0105 ± 0.023 | -0.029 ± 0.034 | -0.001 ± 0.04 | -0.009 ± 0.041 | -0.023 ± 0.033 | -0.052 ± 0.016 | -0.042 ± 0.038 | -0.049 ± 0.014
2 | SAg:CXCL9/MIG | -0.005 ± 0.013 | -0.0145 ± 0.0092 | 0.0005 ± 0.012 | -0.0205 ± 0.028 | -0.005 ± 0.014 | 0.0045 ± 0.032 | 0.002 ± 0.0085 | 0.015 ± 0.0042 | -0.0045 ± 0.005 | -0.003 ± 0.016 | -0.0065 ± 0.005 | -0.01 ± 0.017 | -0.0055 ± 0.015 | 0.0055 ± 0.0064 | -0.007 ± 0.0099 | 0.002 ± 0.0042 | 0.002 ± 0.0071 | -0.0145 ± 0.0021 | -0.017 ± 0.0014 | 0.009 ± 0.014
3 | LPS:CD106/VCAM-1 | -0.0045 ± 0.00071 | -0.008 ± 0.0014 | -0.0165 ± 0.0064 | -0.031 ± 0.0057 | -0.0145 ± 0.018 | -0.029 ± 0.0028 | 0.0045 ± 0.016 | -0.003 ± 0.035 | -0.0095 ± 0.0021 | -0.0075 ± 0.0021 | -0.027 ± 0.033 | -0.0165 ± 0.013 | -0.006 ± 0.0028 | 0.0075 ± 0.033 | -0.0015 ± 0.016 | -0.0075 ± 0.0078 | -0.0095 ± 0.028 | -0.041 ± 0.0014 | -0.021 ± 0.0099 | -0.0135 ± 0.018
4 | SAg:PBMC Cytotoxicity | -0.016 ± 0.024 | 0.0085 ± 0.018 | -0.033 ± 0.045 | -0.025 ± 0.023 | -0.014 ± 0.0014 | -0.024 ± 0.028 | -0.0255 ± 0.018 | 0.0155 ± 0.013 | -0.0155 ± 0.00071 | -0.013 ± 0.037 | -0.009 ± 0.057 | 0.007 ± 0.023 | 0.045 ± 0.0099 | 0.0765 ± 0.013 | 0.0225 ± 0.026 | 0.0245 ± 0.028 | 0.0425 ± 0.022 | 0.0005 ± 0.052 | 0.026 ± 0.0042 | 0.0245 ± 0.012
5 | LPS:CD40 | 0.0475 ± 0.061 | 0.056 ± 0.061 | 0.014 ± 0.078 | 0.058 ± 0.0014 | 0.0375 ± 0.005 | -0.0135 ± 0.061 | 0.07 ± 0.038 | -0.0015 ± 0.016 | 0.0245 ± 0.061 | 0 ± 0.03 | -0.0095 ± 0.022 | -0.027 ± 0.023 | -0.033 ± 0.016 | -0.0655 ± 0.021 | 0.012 ± 0.041 | -0.011 ± 0.018 | -0.0405 ± 0.023 | -0.0315 ± 0.047 | -0.04 ± 0.013 | -0.025 ± 0.02
6 | BE3C:CD54/ICAM-1 | 0 ± 0.013 | -0.016 ± 0.011 | 0.006 ± 0.02 | -0.006 ± 0.0014 | -0.0125 ± 0.015 | -0.005 ± 0.014 | -0.0075 ± 0.0021 | 0.005 ± 0.0042 | -0.0015 ± 0.023 | -0.0165 ± 0.0092 | 0.011 ± 0.025 | -0.0435 ± 0.012 | -0.043 ± 0.0042 | -0.071 ± 0.0057 | -0.0095 ± 0.022 | -0.014 ± 0.024 | -0.0245 ± 0.005 | -0.0045 ± 0.0021 | 0.002 ± 0.0028 | -0.0055 ± 0.00071
7 | SAg:CD69 | -0.025 ± 0.011 | -0.037 ± 0.0042 | -0.036 ± 0.011 | -0.0155 ± 0.033 | -0.017 ± 0.024 | 0.006 ± 0.0014 | -0.0095 ± 0.015 | -0.0335 ± 0.033 | -0.01 ± 0.014 | -0.0095 ± 0.03 | 0.018 ± 0.047 | -0.0335 ± 0.025 | -0.034 ± 0.0085 | -0.0245 ± 0.00071 | -0.0085 ± 0.00071 | -0.0055 ± 0.005 | -0.016 ± 0.0042 | -0.026 ± 0.013 | -0.0385 ± 0.018 | -0.026 ± 0.0071
8 | BF4T:CD90 | 0.0025 ± 0.00071 | -0.001 ± 0.0028 | 0.013 ± 0.0028 | -0.0085 ± 0.0035 | -0.002 ± 0.018 | -0.002 ± 0.011 | 0.011 | 0 ± 0.0085 | -0.001 ± 0.0028 | -0.0055 ± 0.00071 | -0.0075 ± 0.0078 | -0.0705 ± 0.021 | -0.0605 ± 0.013 | -0.0685 ± 0.015 | -0.002 ± 0.0057 | -0.025 ± 0.0028 | -0.0075 ± 0.012 | -0.0025 ± 0.0064 | 0.0005 ± 0.0064 | -0.0045 ± 0.015
9 | BT:sTNF-alpha | -0.02 ± 0.038 | 0.063 ± 0.055 | -0.114 ± 0.052 | 0.009 ± 0.031 | -0.0095 ± 0.14 | -0.0015 ± 0.16 | 0.0485 ± 0.1 | 0.0945 ± 0.03 | 0.019 ± 0.093 | 0.0875 ± 0.069 | 0.0305 ± 0.023 | 0.032 ± 0.069 | 0.076 ± 0.014 | 0.032 ± 0.04 | -0.0005 ± 0.076 | 0.026 ± 0.083 | 0.085 ± 0.078 | 0.0135 ± 0.0078 | 0.0225 ± 0.081 | -0.0025 ± 0.0092
10 | 4H:CCL2/MCP-1 | 0.005 | -0.0045 ± 0.029 | 0.0325 ± 0.035 | 0.0085 ± 0.015 | -0.008 ± 0.0028 | 0.0145 ± 0.029 | -0.0135 ± 0.011 | 0.002 ± 0.0042 | -0.0185 ± 0.012 | -0.05 ± 0.028 | 0.0005 ± 0.079 | -0.028 ± 0.013 | -0.059 ± 0.017 | -0.0405 ± 0.081 | 0 | -0.0255 ± 0.005 | 0.0155 ± 0.059 | -0.028 ± 0.0042 | -0.0445 ± 0.03 | 0 ± 0.075
11 | BE3C:IL-1alpha | -0.0085 ± 0.016 | -0.005 ± 0.013 | -0.012 ± 0.0085 | -0.0155 ± 0.013 | -0.009 ± 0.0014 | -0.0195 ± 0.013 | -0.017 ± 0.0057 | -0.009 ± 0.0014 | 0.007 ± 0.018 | 0.0155 ± 0.021 | 0.0225 ± 0.049 | 0.032 ± 0.0028 | 0.014 ± 0.028 | 0.026 ± 0.0028 | 0.0065 ± 0.026 | 0.016 ± 0.02 | 0.0325 ± 0.00071 | 0.0095 ± 0.022 | 0.003 ± 0.014 | 0.0295 ± 0.0035
12 | BE3C:CXCL8/IL-8 | 0.0285 ± 0.037 | 0.0605 ± 0.023 | 0.086 ± 0.024 | 0.011 ± 0.033 | 0.021 ± 0.028 | 0.052 ± 0.033 | -0.0065 ± 0.0092 | -0.008 ± 0.024 | 0.0155 ± 0.022 | 0.01 ± 0.014 | 0.0155 ± 0.005 | 0.0255 ± 0.084 | 0.0435 ± 0.059 | 0.0385 ± 0.023 | 0.0175 ± 0.025 | 0.0185 ± 0.019 | 0.015 ± 0.038 | 0.016 ± 0.028 | 0.0125 ± 0.074 | 0.0445 ± 0.044
13 | BE3C:CXCL10/IP-10 | 0.018 ± 0.052 | 0.022 ± 0.033 | 0.004 ± 0.052 | 0.013 ± 0.018 | 0.0135 ± 0.0078 | 0.0355 ± 0.022 | 0.032 ± 0.031 | 0.022 ± 0.021 | 0.0065 ± 0.00071 | -0.001 ± 0.011 | 0.0085 ± 0.0078 | -0.021 ± 0.0057 | -0.04 ± 0.0042 | -0.149 ± 0.04 | 0.003 ± 0.0014 | 0.0135 ± 0.00071 | 0.0155 ± 0.015 | -0.008 ± 0.0085 | 0 ± 0.0028 | -0.0015 ± 0.0064
